Experiment [1] concerns the target Serine/threonine-protein kinase mTOR (Homo sapiens, UniProt P42345). Kind of experiment: Inhibition of N-terminal FLAG-tagged recombinant human mTOR (1362 to end residue) using ULight-4EBP1 peptide as substrate incubated for 30 mins in presence of ATP by Lance ultra assay.
For experiment [2], the system named is HT-29. The experiment can be described thus: Antiproliferative activity against human HT-29 cells with PIK3CA mutation assessed as inhibition of cell growth incubated for 48 to 72 hrs by MTT assay. In kind it is functional, cell-based. In general terms: Formazan colour is commonly taken as a measure of viable cells.
Experiment [3] concerns the target Phosphatidylinositol 4,5-bisphosphate 3-kinase catalytic subunit alpha isoform (Homo sapiens, UniProt P42336). Kind of experiment: Inhibition of PI3Kalpha (unknown origin) using PIP2 as substrate incubated for 1 hr in presence of ATP by Kinase Glo luminescence assay. (In general: Kinase-Glo measures the ATP left after a reaction by luminescence.)
The test system of experiment [4] is NCI-H3122. The experiment can be described thus: Antiproliferative activity against human NCI-H3122 cells assessed as inhibition of cell growth incubated for 48 to 72 hrs by MTT assay. In kind it is functional, cell-based.
For experiment [5], the system named is HeLa. Kind of experiment: Antiproliferative activity against human HeLa cells assessed as inhibition of cell growth incubated for 48 to 72 hrs by MTT assay. The format is functional, cell-based.
Experiment [6] relates to SW-620. Kind of experiment: Antiproliferative activity against human SW620 cells assessed as inhibition of cell growth incubated for 48 to 72 hrs by MTT assay. The format is functional, cell-based.
Experiment [7] deals with T1, Phosphatidylinositol 4,5-bisphosphate 3-kinase catalytic subunit delta isoform (Homo sapiens, UniProt O00329).
T1 sequence (O00329 whole entry): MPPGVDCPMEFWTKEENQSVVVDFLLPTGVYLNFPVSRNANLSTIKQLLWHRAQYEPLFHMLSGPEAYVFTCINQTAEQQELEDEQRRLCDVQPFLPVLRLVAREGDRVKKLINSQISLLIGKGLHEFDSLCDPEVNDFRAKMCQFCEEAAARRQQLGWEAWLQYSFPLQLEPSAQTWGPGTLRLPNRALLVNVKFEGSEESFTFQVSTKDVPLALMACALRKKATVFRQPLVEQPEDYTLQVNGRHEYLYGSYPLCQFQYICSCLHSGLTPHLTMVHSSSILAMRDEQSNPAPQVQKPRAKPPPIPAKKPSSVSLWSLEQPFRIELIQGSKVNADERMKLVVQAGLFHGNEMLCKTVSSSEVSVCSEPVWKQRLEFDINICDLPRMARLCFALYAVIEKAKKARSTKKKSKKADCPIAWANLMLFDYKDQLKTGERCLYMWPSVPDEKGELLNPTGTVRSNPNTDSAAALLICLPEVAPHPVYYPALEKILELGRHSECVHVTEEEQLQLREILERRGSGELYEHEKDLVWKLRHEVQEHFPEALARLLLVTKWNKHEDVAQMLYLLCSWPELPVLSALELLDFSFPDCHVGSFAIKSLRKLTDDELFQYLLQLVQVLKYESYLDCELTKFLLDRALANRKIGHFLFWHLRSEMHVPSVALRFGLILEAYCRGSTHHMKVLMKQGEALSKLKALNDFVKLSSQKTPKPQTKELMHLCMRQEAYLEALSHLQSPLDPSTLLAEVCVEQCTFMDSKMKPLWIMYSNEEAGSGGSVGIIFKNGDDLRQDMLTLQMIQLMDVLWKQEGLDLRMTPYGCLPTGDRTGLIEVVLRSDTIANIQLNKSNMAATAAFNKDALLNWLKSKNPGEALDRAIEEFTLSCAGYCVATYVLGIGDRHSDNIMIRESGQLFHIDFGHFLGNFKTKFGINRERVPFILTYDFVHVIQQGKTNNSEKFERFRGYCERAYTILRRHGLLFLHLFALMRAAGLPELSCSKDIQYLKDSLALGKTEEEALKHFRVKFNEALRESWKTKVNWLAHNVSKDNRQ
Kind of experiment: Inhibition of PI3Kdelta (unknown origin) using PIP2 as substrate incubated for 2 hrs in presence of ATP by Kinase Glo luminescence assay.

In experiment [8] the test system is HCT-15. The experiment can be described thus: Antiproliferative activity against human HCT-15 cells with PIK3CA mutation assessed as inhibition of cell growth incubated for 48 to 72 hrs by MTT assay. The format is functional, cell-based.
The subject of experiment [9] is NCI-H446. Kind of experiment: Antiproliferative activity against PTEN-null human NCI-H446 cells assessed as inhibition of cell growth incubated for 48 to 72 hrs by MTT assay. In kind it is functional, cell-based.

Molecules are shown by their SMILES. Where only a bound is given, the exact number is not on record here.

A word on the IC50: it is the concentration that gives 50% inhibition.

Phosphatidylinositol 4,5-bisphosphate 3-kinase catalytic subunit alpha isoform, sequence (P42336 whole entry, canonical isoform): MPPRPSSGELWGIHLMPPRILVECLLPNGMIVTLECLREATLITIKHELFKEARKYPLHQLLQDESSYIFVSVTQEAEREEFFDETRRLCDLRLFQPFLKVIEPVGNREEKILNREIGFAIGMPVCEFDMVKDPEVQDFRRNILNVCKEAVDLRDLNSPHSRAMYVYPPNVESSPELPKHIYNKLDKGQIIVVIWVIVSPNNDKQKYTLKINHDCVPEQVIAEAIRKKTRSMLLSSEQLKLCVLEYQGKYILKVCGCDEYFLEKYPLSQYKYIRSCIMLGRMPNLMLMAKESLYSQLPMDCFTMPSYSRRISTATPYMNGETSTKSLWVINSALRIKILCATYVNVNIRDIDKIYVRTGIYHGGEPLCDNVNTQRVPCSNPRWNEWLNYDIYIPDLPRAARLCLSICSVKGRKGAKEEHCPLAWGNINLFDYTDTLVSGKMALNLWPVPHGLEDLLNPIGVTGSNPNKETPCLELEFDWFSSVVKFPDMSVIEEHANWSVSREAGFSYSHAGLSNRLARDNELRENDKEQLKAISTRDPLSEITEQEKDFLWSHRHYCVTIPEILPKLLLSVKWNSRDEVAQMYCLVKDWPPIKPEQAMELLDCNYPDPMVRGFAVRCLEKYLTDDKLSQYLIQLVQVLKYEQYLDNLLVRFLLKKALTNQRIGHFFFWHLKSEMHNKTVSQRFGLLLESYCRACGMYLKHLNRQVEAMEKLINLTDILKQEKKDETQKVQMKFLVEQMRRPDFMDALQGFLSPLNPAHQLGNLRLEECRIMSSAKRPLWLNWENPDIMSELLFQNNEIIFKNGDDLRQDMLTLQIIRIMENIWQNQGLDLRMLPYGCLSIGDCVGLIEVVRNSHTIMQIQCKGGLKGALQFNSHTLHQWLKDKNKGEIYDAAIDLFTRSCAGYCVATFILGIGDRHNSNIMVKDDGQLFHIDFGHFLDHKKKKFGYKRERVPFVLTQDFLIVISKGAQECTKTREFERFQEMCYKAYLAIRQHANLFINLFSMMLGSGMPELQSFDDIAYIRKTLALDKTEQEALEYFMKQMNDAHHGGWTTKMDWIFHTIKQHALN

Take `Cc1nc2cnc3ccc(-c4cnc5[nH]ccc5c4)cc3c2n1[C@H](C)c1ccc(F)cc1`: the IC50 came to 90.2 nM in experiment [1]; 1380 nM in [2]; 151 nM in experiment [3]; 2.05 µM in experiment [4]; 3.94 µM in [5]; 1740 nM in [6]. Also, the IC50 worked out at 184 nM in experiment [7], 1170 nM in experiment [8] and 3.97 µM in experiment [9].
As to `Cc1nc2cnc3ccc(-c4cnc(N)nc4)cc3c2n1-c1ccc(F)cc1`, the half-maximal inhibitory concentration (IC50) in [1] came out at 62.1 nM; in [2], 1320 nM; in experiment [3], 36.7 nM; in [4] it was 5.39 µM; in experiment [5], 2.71 µM; in experiment [6] it was 1930 nM. The IC50 in [7] amounted to 30.4 nM; in experiment [8] it was 1970 nM; in [9], 4.16 µM.
On to `Cc1nc2cnc3ccc(-c4cnc5[nH]ccc5c4)cc3c2n1-c1ccc(F)nc1`, for which the IC50 worked out at 76.4 nM in [1]; 1160 nM in experiment [2]; 41.4 nM in experiment [3]; 1.31 µM in [4]; 1.92 µM in experiment [5]; 970 nM in experiment [6]. Moreover, the IC50 was determined as 55.2 nM in [7], 1290 nM in [8] and 2.1 µM in experiment [9].
Take `Cc1nc2cnc3ccc(-c4ccc(C#N)cc4)cc3c2n1-c1ccc(F)cc1`: the IC50 in [1] is > 1000 nM; in experiment [3], 352 nM; in experiment [7], 513 nM.
For `Cc1nc2cnc3ccc(-c4cnc5[nH]ccc5c4)cc3c2n1-c1ccc(C(F)(F)F)cc1`, the IC50 in [1] amounted to 109 nM; in [2], 1250 nM; in experiment [3] it was 47.1 nM; in [4], 1.03 µM; in experiment [5] it was 1.08 µM; in experiment [6], 1160 nM. Also, the figures for the IC50 in experiment [7], in experiment [8] and in [9] were 66.3 nM, 970 nM and 1.39 µM, respectively.
Consider `Cc1nc2cnc3ccc(-c4cnc5[nH]ccc5c4)cc3c2n1-c1ccc(CC#N)cc1`, for which the IC50 in experiment [1] came out at 84.9 nM; in experiment [2], 1150 nM; in experiment [3] it was 139 nM; in experiment [4], 5.36 µM; in experiment [5], 2.76 µM; in experiment [6] it was 3210 nM. In addition, the results for the IC50 in experiment [7], in [8] and in experiment [9] were 105 nM, 1790 nM and 4.82 µM, respectively.
In the case of `Cc1ccc(-c2ccc3ncc4nc(C)n(-c5ccc(F)cc5)c4c3c2)cc1`, the IC50 was > 1000 nM in [1], 357 nM in experiment [3] and 579 nM in experiment [7].
`Cc1nc2cnc3ccc(-c4ccc(N)cc4)cc3c2n1-c1ccc(F)cc1`: the IC50 in experiment [1] was 121 nM; in experiment [2] it was 1980 nM; in experiment [3] it was 68.1 nM; in experiment [4] it was 8.75 µM; in experiment [5], 3.13 µM; in [6] it was 2150 nM. Also, the IC50 in experiment [7] came out at 90.3 nM; in [8], 2320 nM; in experiment [9], 6.97 µM.
For `Cc1nc2cnc3ccc(-c4cnc5[nH]ccc5c4)cc3c2n1-c1ccccc1`, the IC50 in [1] was found to be 73.9 nM; in [2], 2310 nM; in [3] it was 41 nM; in experiment [4], 5.61 µM; in experiment [5], 3.64 µM; in experiment [6] it was 2910 nM. The IC50 in [7] amounted to 32.3 nM; in [8], 1940 nM; in [9] it was 4.51 µM.
`Oc1cccc(-c2nc(N3CCOCC3)c3oc4ncccc4c3n2)c1` [PI-103]: the IC50 worked out at 1310 nM in experiment [2]; 2.51 µM in experiment [4]; 3.72 µM in experiment [5]; 1070 nM in experiment [6]; 1760 nM in experiment [8]; 2.16 µM in experiment [9].
With `COc1ccc(-c2ccc3ncc4nc(C)n(-c5ccc(F)cc5)c4c3c2)cc1`, the IC50 is > 1000 nM in experiment [1], 321 nM in [3] and > 1000 nM in experiment [7].
Consider `Cc1nc2cnc3ccc(-c4cnc5ccccc5c4)cc3c2n1-c1ccc(F)cc1`, for which the IC50 was found to be 32.3 nM in experiment [1]; 3250 nM in experiment [2]; 33.1 nM in [3]; 5.08 µM in experiment [4]; 4.31 µM in experiment [5]; 2790 nM in experiment [6]. Moreover, the 50% inhibitory concentration (IC50) was determined as 40.5 nM in experiment [7], 3090 nM in [8] and 7.13 µM in experiment [9].
Turning to `Cc1nc2cnc3ccc(-c4cnc5[nH]ccc5c4)cc3c2n1[C@@H](C)c1ccc(F)cc1`, the IC50 was 87.4 nM in experiment [1]; 1710 nM in [2]; 140 nM in experiment [3]; 1.97 µM in [4]; 3.51 µM in [5]; 1610 nM in experiment [6]. The results for the IC50 in [7], in experiment [8] and in [9] were 203 nM, 1040 nM and 3.02 µM, respectively.
`Cc1nc2cnc3ccc(-c4cnc5[nH]ccc5c4)cc3c2n1Cc1ccccc1`: the IC50 is 263 nM in [1]; 2980 nM in [2]; 117 nM in experiment [3]; 6.71 µM in experiment [4]; 2.72 µM in [5]; 4160 nM in experiment [6]. Further, the IC50 came out at 106 nM in [7], 3060 nM in [8] and 7.59 µM in experiment [9].
As for `Cc1nc2cnc3ccc(-c4cnc5[nH]ccc5c4)cc3c2n1CC1CCOC1` (stereo unspecified), the IC50 in [1] worked out at 392 nM; in [3] it was 365 nM; in experiment [7] it was 450 nM.
As for `Cc1nc2cnc3ccc(-c4cnc5[nH]ccc5c4)cc3c2n1CC1CCOCC1`, the half-maximal inhibitory concentration (IC50) in experiment [1] is 415 nM; in experiment [3], 307 nM; in experiment [7] it was 218 nM.
With `Cc1nc2cnc3ccc(-c4cnc5[nH]ccc5c4)cc3c2n1C`, the IC50 in [1] is 679 nM; in [3], 472 nM; in [7] it was > 1000 nM.
The matching figures for `Cc1nc2cnc3ccc(-c4cnn(C)c4)cc3c2n1-c1ccc(F)cc1`: > 1000 nM, 672 nM and > 1000 nM.
The matching figures for `Cc1nc2cnc3ccc(-c4cc(C(F)(F)F)cc(C(F)(F)F)c4)cc3c2n1-c1ccc(F)cc1`: > 1000 nM, > 1000 nM and > 1000 nM.
The matching figures for `Cc1nc2cnc3ccc(-c4ccc(F)cc4)cc3c2n1-c1ccc(F)cc1`: 781 nM, 487 nM and > 1000 nM.
For the compound `CC(=O)c1ccc(-c2ccc3ncc4nc(C)n(-c5ccc(F)cc5)c4c3c2)cc1`, the IC50 was 487 nM in experiment [1], 304 nM in [3] and > 1000 nM in [7].
The matching figures for `Cc1noc(C)c1-c1ccc2ncc3nc(C)n(-c4ccc(F)cc4)c3c2c1`: > 1000 nM, > 1000 nM and 852 nM.
Regarding `Cc1nc2cnc3ccc(-c4ccc(Cl)cc4)cc3c2n1-c1ccc(F)cc1`, the values for the IC50 in experiment [1], in experiment [3] and in [7] were > 1000 nM, 569 nM and > 1000 nM, respectively.
`Cc1nc2cnc3ccc(-c4cnc5[nH]ccc5c4)cc3c2n1C1CC1`: the values for the half-maximal inhibitory concentration (IC50) in experiment [1], in experiment [3] and in experiment [7] were > 1000 nM, 501 nM and 814 nM, respectively.
The matching figures for `Cc1nc2cnc3ccc(-c4cnc(N5CCOCC5)nc4)cc3c2n1-c1ccc(F)cc1`: 596 nM, 463 nM and > 1000 nM.
In the case of `Cc1nc2cnc3ccc(-c4ccc(C(F)(F)F)cc4)cc3c2n1-c1ccc(F)cc1`, the IC50 in [1] was > 1000 nM; in experiment [3], 507 nM; in experiment [7] it was > 1000 nM.

For the origin of these results see ChEMBL document CHEMBL5108059, “Discovery of 2-Methyl-2-(4-(2-methyl-8-(1H-pyrrolo[2,3-b]pyridin-6-yl)-1H-naphtho[1,2-d]imidazol-1-yl)phenyl)propanenitrile as a Novel PI3K/mTOR Inhibitor with Enhanced Antitumor Efficacy In Vitro and In Vivo” (J Med Chem, 2022).
